Laboratory results published in the OligoGym collection.
HELM strings list units from the 5' end as sugar, base in round brackets, then linkage (d deoxyribose, r ribose, m 2'-O-methyl, p phosphodiester). Strings are as the collection lists them, not checked against the first reports. ss, as = sense and antisense strand; [s4r] = 4'-thioribose; [fl2r] = 2'-fluoro

Details: siRNA
Note: test system not given here.

Substance	target mRNA knockdown [%]
RNA1{r(C)p.r(C)p.r(U)p.r(C)p.r(G)p.r(G)p.r(A)p.r(G)p.r(A)p.r(G)p.r(U)p.r(U)p.r(C)p.m(U)p.r(A)p.r(C)p.r(U)p.r(C)p.r(U)p.r(T)p.r(T)}|RNA2{r(A)p.r(G)p.r(A)p.r(G)p.m(U)p.r(A)p.r(G)p.r(A)p.r(A)p.r(C)p.r(U)p.r(C)p.r(U)p.r(C)p.r(C)p.r(G)p.r(A)p.r(G)p.r(G)p.r(T)p.r(T)}$$$RNA1{StrandType:ss}|RNA2{StrandType:as}$	85
RNA1{r(C)p.r(C)p.r(U)p.r(C)p.r(G)p.r(G)p.r(A)p.r(G)p.r(A)p.r(G)p.r(U)p.r(U)p.r(C)p.r(U)p.r(A)p.r(C)p.r(U)p.r(C)p.r(U)p.r(T)p.r(T)}|RNA2{r(A)p.r(G)p.r(A)p.r(G)p.m(U)p.r(A)p.r(G)p.r(A)p.r(A)p.r(C)p.r(U)p.r(C)p.r(U)p.r(C)p.r(C)p.r(G)p.r(A)p.r(G)p.r(G)p.r(T)p.r(T)}$$$RNA1{StrandType:ss}|RNA2{StrandType:as}$	85
RNA1{r(C)p.r(G)p.[s4r](U)p.r(A)p.r(C)p.r(G)p.r(C)p.r(G)p.r(G)p.r(A)p.r(A)p.[s4r](U)p.r(A)p.r(C)p.[s4r](U)p.[s4r](U)p.r(C)p.r(G)p.r(A)p.r(T)p.r(T)}|RNA2{r(U)p.r(C)p.r(G)p.r(A)p.r(A)p.r(G)p.r(U)p.r(A)p.r(U)p.r(U)p.r(C)p.r(C)p.r(G)p.r(C)p.r(G)p.r(U)p.r(A)p.r(C)p.r(G)p.r(T)p.r(T)}$$$RNA1{StrandType:ss}|RNA2{StrandType:as}$	96.3
RNA1{r(C)p.r(G)p.m(C)p.r(C)p.r(C)p.m(C)p.r(C)p.r(C)p.r(U)p.m(C)p.r(A)p.r(A)p.r(G)p.r(C)p.m(U)p.r(A)p.r(C)p.r(C)p.r(G)p.r(T)p.r(T)}|RNA2{r(C)p.r(G)p.r(G)p.m(U)p.r(A)p.r(G)p.r(C)p.r(U)p.m(U)p.r(G)p.r(A)p.r(G)p.r(G)p.r(G)p.r(G)p.r(G)p.r(G)p.r(C)p.r(G)p.r(T)p.r(T)}$$$RNA1{StrandType:ss}|RNA2{StrandType:as}$	72
RNA1{r(C)p.r(G)p.r(A)p.r(A)p.r(A)p.r(G)p.[fl2r](U)p.r(G)p.[fl2r](U)p.r(A)p.r(U)p.r(C)p.r(C)p.r(G)p.r(A)p.r(A)p.r(G)p.r(A)p.r(C)p.r(T)p.r(T)}|RNA2{r(G)p.r(U)p.r(C)p.r(U)p.r(U)p.r(C)p.r(G)p.r(G)p.r(A)p.[fl2r](U)p.r(A)p.[fl2r](C)p.r(A)p.r(C)p.r(U)p.r(U)p.r(U)p.r(C)p.r(G)p.r(T)p.r(T)}$$$RNA1{StrandType:ss}|RNA2{StrandType:as}$	75
RNA1{r(C)p.r(G)p.r(A)p.r(A)p.r(A)p.r(G)p.r(U)p.r(G)p.r(U)p.r(A)p.r(U)p.r(C)p.r(C)p.r(G)p.r(A)p.r(A)p.r(G)p.r(A)p.r(C)p.r(T)p.r(T)}|RNA2{r(G)p.r(U)p.r(C)p.r(U)p.r(U)p.r(C)p.r(G)p.r(G)p.r(A)p.[fl2r](U)p.r(A)p.r(C)p.r(A)p.r(C)p.r(U)p.r(U)p.r(U)p.r(C)p.r(G)p.r(T)p.r(T)}$$$RNA1{StrandType:ss}|RNA2{StrandType:as}$	69
RNA1{r(C)p.r(G)p.r(A)p.r(C)p.[fl2r](G)p.r(A)p.r(U)p.r(U)p.r(C)p.r(U)p.r(U)p.r(C)p.[fl2r](U)p.r(A)p.r(C)p.r(U)p.r(C)p.r(A)p.r(A)p.r(T)p.r(T)}|RNA2{r(U)p.[fl2r](U)p.r(G)p.r(A)p.r(G)p.[fl2r](U)p.r(A)p.r(G)p.r(A)p.r(A)p.r(G)p.r(A)p.r(A)p.r(U)p.r(C)p.r(G)p.r(U)p.r(C)p.r(G)p.r(T)p.r(T)}$$$RNA1{StrandType:ss}|RNA2{StrandType:as}$	62
RNA1{r(C)p.r(G)p.r(A)p.r(C)p.r(G)p.r(A)p.r(U)p.r(U)p.r(C)p.r(U)p.r(U)p.r(C)p.[fl2r](U)p.r(A)p.r(C)p.r(U)p.r(C)p.r(A)p.r(A)p.r(T)p.r(T)}|RNA2{r(U)p.r(U)p.r(G)p.r(A)p.r(G)p.[fl2r](U)p.r(A)p.r(G)p.r(A)p.r(A)p.r(G)p.r(A)p.r(A)p.r(U)p.r(C)p.r(G)p.r(U)p.r(C)p.r(G)p.r(T)p.r(T)}$$$RNA1{StrandType:ss}|RNA2{StrandType:as}$	67
RNA1{r(C)p.r(G)p.r(A)p.r(G)p.m(U)p.r(G)p.r(U)p.r(C)p.m(U)p.r(A)p.r(A)p.r(C)p.r(G)p.r(G)p.r(G)p.r(A)p.r(G)p.r(C)p.r(C)p.r(T)p.r(T)}|RNA2{r(G)p.r(G)p.r(C)p.r(U)p.r(C)p.r(C)p.r(C)p.r(G)p.r(U)p.m(U)p.r(A)p.r(G)p.r(A)p.m(C)p.r(A)p.r(C)p.r(U)p.r(C)p.r(G)p.r(T)p.r(T)}$$$RNA1{StrandType:ss}|RNA2{StrandType:as}$	65
RNA1{r(C)p.r(G)p.r(A)p.r(G)p.r(U)p.r(G)p.r(U)p.r(C)p.r(U)p.r(A)p.r(A)p.r(C)p.r(G)p.r(G)p.r(G)p.r(A)p.r(G)p.r(C)p.r(C)p.r(T)p.r(T)}|RNA2{r(G)p.r(G)p.r(C)p.r(U)p.r(C)p.r(C)p.r(C)p.r(G)p.r(U)p.m(U)p.r(A)p.r(G)p.r(A)p.r(C)p.r(A)p.r(C)p.r(U)p.r(C)p.r(G)p.r(T)p.r(T)}$$$RNA1{StrandType:ss}|RNA2{StrandType:as}$	68
RNA1{r(C)p.r(G)p.r(C)p.r(C)p.r(C)p.r(C)p.r(C)p.r(C)p.r(U)p.r(C)p.r(A)p.r(A)p.r(G)p.r(C)p.m(U)p.r(A)p.r(C)p.r(C)p.r(G)p.r(T)p.r(T)}|RNA2{r(C)p.r(G)p.r(G)p.m(U)p.r(A)p.r(G)p.r(C)p.r(U)p.r(U)p.r(G)p.r(A)p.r(G)p.r(G)p.r(G)p.r(G)p.r(G)p.r(G)p.r(C)p.r(G)p.r(T)p.r(T)}$$$RNA1{StrandType:ss}|RNA2{StrandType:as}$	76
RNA1{r(C)p.r(G)p.r(G)p.r(A)p.r(U)p.r(C)p.m(U)p.m(A)p.m(C)p.r(A)p.r(C)p.r(C)p.r(U)p.r(U)p.m(C)p.r(A)p.r(A)p.r(G)p.r(A)p.r(T)p.r(T)}|RNA2{r(U)p.r(C)p.r(U)p.m(U)p.r(G)p.r(A)p.r(A)p.r(G)p.r(G)p.m(U)p.r(G)p.m(U)p.r(A)p.r(G)p.r(A)p.r(U)p.r(C)p.r(C)p.r(G)p.r(T)p.r(T)}$$$RNA1{StrandType:ss}|RNA2{StrandType:as}$	40
RNA1{r(C)p.r(G)p.r(G)p.r(A)p.r(U)p.r(C)p.m(U)p.r(A)p.m(C)p.r(A)p.r(C)p.r(C)p.r(U)p.r(U)p.m(C)p.r(A)p.r(A)p.r(G)p.r(A)p.r(T)p.r(T)}|RNA2{r(U)p.r(C)p.r(U)p.m(U)p.r(G)p.r(A)p.r(A)p.r(G)p.r(G)p.m(U)p.r(G)p.m(U)p.r(A)p.r(G)p.r(A)p.r(U)p.r(C)p.r(C)p.r(G)p.r(T)p.r(T)}$$$RNA1{StrandType:ss}|RNA2{StrandType:as}$	68
RNA1{r(C)p.r(G)p.r(G)p.r(A)p.r(U)p.r(C)p.m(U)p.r(A)p.r(C)p.r(A)p.r(C)p.r(C)p.r(U)p.r(U)p.r(C)p.m(A)p.r(A)p.r(G)p.r(A)p.r(T)p.r(T)}|RNA2{r(U)p.r(C)p.r(U)p.m(U)p.r(G)p.r(A)p.r(A)p.r(G)p.r(G)p.m(U)p.r(G)p.m(U)p.r(A)p.r(G)p.r(A)p.r(U)p.r(C)p.r(C)p.r(G)p.r(T)p.r(T)}$$$RNA1{StrandType:ss}|RNA2{StrandType:as}$	42
RNA1{r(C)p.r(G)p.r(G)p.r(A)p.r(U)p.r(C)p.m(U)p.r(A)p.r(C)p.r(A)p.r(C)p.r(C)p.r(U)p.r(U)p.r(C)p.r(A)p.r(A)p.r(G)p.r(A)p.r(T)p.r(T)}|RNA2{r(U)p.r(C)p.r(U)p.r(U)p.r(G)p.r(A)p.r(A)p.r(G)p.r(G)p.r(U)p.r(G)p.m(U)p.r(A)p.r(G)p.r(A)p.r(U)p.r(C)p.r(C)p.r(G)p.r(T)p.r(T)}$$$RNA1{StrandType:ss}|RNA2{StrandType:as}$	69
RNA1{r(C)p.r(G)p.r(G)p.r(G)p.[fl2r](U)p.[fl2r](A)p.r(C)p.r(G)p.r(A)p.r(G)p.r(C)p.r(C)p.r(G)p.r(G)p.r(A)p.r(A)p.r(C)p.r(C)p.r(U)p.r(T)p.r(T)}|RNA2{r(A)p.r(G)p.r(G)p.r(U)p.r(U)p.r(C)p.r(C)p.r(G)p.r(G)p.r(C)p.r(U)p.r(C)p.r(G)p.[fl2r](U)p.r(A)p.r(C)p.r(C)p.r(C)p.r(G)p.r(T)p.r(T)}$$$RNA1{StrandType:ss}|RNA2{StrandType:as}$	68
RNA1{r(C)p.r(G)p.r(G)p.r(G)p.r(U)p.r(A)p.r(C)p.r(G)p.r(A)p.r(G)p.r(C)p.r(C)p.r(G)p.r(G)p.r(A)p.r(A)p.r(C)p.r(C)p.r(U)p.r(T)p.r(T)}|RNA2{r(A)p.r(G)p.r(G)p.r(U)p.r(U)p.r(C)p.r(C)p.r(G)p.r(G)p.r(C)p.r(U)p.r(C)p.r(G)p.[fl2r](U)p.r(A)p.r(C)p.r(C)p.r(C)p.r(G)p.r(T)p.r(T)}$$$RNA1{StrandType:ss}|RNA2{StrandType:as}$	69
RNA1{r(C)p.r(G)p.r(U)p.r(A)p.r(C)p.r(G)p.[s4r](C)p.[s4r](G)p.[s4r](G)p.[s4r](A)p.[s4r](A)p.[s4r](U)p.[s4r](A)p.r(C)p.r(U)p.r(U)p.r(C)p.r(G)p.r(A)p.r(T)p.r(T)}|RNA2{r(U)p.r(C)p.r(G)p.r(A)p.r(A)p.r(G)p.r(U)p.r(A)p.r(U)p.r(U)p.r(C)p.r(C)p.r(G)p.r(C)p.r(G)p.r(U)p.r(A)p.r(C)p.r(G)p.r(T)p.r(T)}$$$RNA1{StrandType:ss}|RNA2{StrandType:as}$	87.4
RNA1{r(C)p.r(G)p.r(U)p.r(A)p.r(C)p.r(G)p.r(C)p.r(G)p.r(G)p.r(A)p.r(A)p.r(U)p.r(A)p.[s4r](C)p.[s4r](U)p.[s4r](U)p.[s4r](C)p.[s4r](G)p.[s4r](A)p.r(T)p.r(T)}|RNA2{[s4r](U)p.[s4r](C)p.[s4r](G)p.[s4r](A)p.[s4r](A)p.[s4r](G)p.r(U)p.r(A)p.r(U)p.r(U)p.r(C)p.r(C)p.r(G)p.r(C)p.r(G)p.r(U)p.r(A)p.r(C)p.r(G)p.r(T)p.r(T)}$$$RNA1{StrandType:ss}|RNA2{StrandType:as}$	10.9
RNA1{r(C)p.r(G)p.r(U)p.r(A)p.r(C)p.r(G)p.r(C)p.r(G)p.r(G)p.r(A)p.r(A)p.r(U)p.r(A)p.[s4r](C)p.[s4r](U)p.[s4r](U)p.[s4r](C)p.[s4r](G)p.[s4r](A)p.r(T)p.r(T)}|RNA2{r(U)p.r(C)p.r(G)p.r(A)p.r(A)p.r(G)p.r(U)p.r(A)p.r(U)p.r(U)p.r(C)p.r(C)p.r(G)p.r(C)p.r(G)p.r(U)p.r(A)p.r(C)p.r(G)p.r(T)p.r(T)}$$$RNA1{StrandType:ss}|RNA2{StrandType:as}$	93.8
